Measured values published in US20230129326A1, “METHODS TO PREVENT SARS-COV-2 INFECTION AND TREAT COVID-19” (priority 2020, published 2023).
≈ marks a conversion by molar mass, not a printed value.

Columns and labels:
[1] = test system: SARS-CoV-2 pseudovirus entry in ACE2 expressing cells; format: cell-based
[2] = test system: SARS-CoV-2 isolate USA-WA1/2020; assay: microbe, parasite or virus in culture; format: cell-based; conditions: Severe acute respiratory syndrome coronavirus 2, A549, read-out: EC50 against SARS-CoV-2 isolate USA-WA1/2020 in A549 overexpressing ACE2

| SMILES | level of SARS-CoV-2 pseudovirus entry, varying concentrations (FIG. 15A) [1] | viral infection (GFP positive cells per image field) [1] | level of SARS-CoV-2 pseudovirus entry, varying concentrations (diminazene, cetirizine, labetalol graph) [1] | EC50 [2] |
| --- | --- | --- | --- | --- |
| CN1CCCC(n2nc(Cc3ccc(Cl)cc3)c3ccccc3c2=O)CC1 (centres unmarked) [azelastine] | significantly lowered the level of SARS-CoV-2 pseudovirus entry | substantially reduced viral infection |  |  |
| O=C(O)COCCN1CCN(C(c2ccccc2)c2ccc(Cl)cc2)CC1 (centres unmarked) [cetirizine] |  | reduced viral infection | significantly lowered the level of SARS-CoV-2 pseudovirus entry |  |
| CN(C)CCC(c1ccc(Cl)cc1)c1ccccn1 (centres unmarked) [chlorpheniramine] |  | reduced viral infection |  |  |
| N=C(N)c1ccc(/N=N/Nc2ccc(C(=N)N)cc2)cc1 [diminazene] |  | reduced viral infection | significantly lowered the level of SARS-CoV-2 pseudovirus entry |  |
| CN(C)CCOC(c1ccccc1)c1ccccc1 [diphenhydramine] |  | substantially reduced viral infection |  |  |
| OCCOCCN1CCN(C(c2ccccc2)c2ccc(Cl)cc2)CC1 (centres unmarked) [hydroxyzine] | significantly lowered the level of SARS-CoV-2 pseudovirus entry | substantially reduced viral infection |  | 27.3 µg/mL (≈ 72.9 µM) |
